Measurements taken from ChEMBL document CHEMBL3526135, “Induction of xenobiotic receptors, transporters, and drug metabolizing enzymes by oxycodone” (Drug Metab Dispos, 2013).

Legend:
Type in all cases: ADME, organism-based
Design in all cases: dose 15 mg/kg, route intraperitoneal
Rattus norvegicus [1] = assay: Effect on CYP17a1 mRNA expression in Sprague-Dawley rat liver at 15 mg/kg, ip administered twice daily every 12 hrs for 8 days by qRT-PCR analysis relative to control; settings: in vivo
Rattus norvegicus [2] = assay: Effect on Por mRNA expression in Sprague-Dawley rat liver at 15 mg/kg, ip administered twice daily every 12 hrs for 8 days by qRT-PCR analysis relative to control; settings: in vivo
Rattus norvegicus [3] = assay: Effect on CAR mRNA expression in Sprague-Dawley rat liver at 15 mg/kg, ip administered twice daily every 12 hrs for 8 days by qRT-PCR analysis relative to control; settings: in vivo
Rattus norvegicus [4] = assay: Effect on Abcb1a mRNA expression in Sprague-Dawley rat liver at 15 mg/kg, ip administered twice daily every 12 hrs for 8 days by qRT-PCR analysis relative to control; settings: in vivo
Rattus norvegicus [5] = assay: Effect on PXR mRNA expression in Sprague-Dawley rat liver at 15 mg/kg, ip administered twice daily every 12 hrs for 8 days by qRT-PCR analysis relative to control; settings: in vivo
Rattus norvegicus [6] = assay: Effect on Fkbp5 mRNA expression in Sprague-Dawley rat liver at 15 mg/kg, ip administered twice daily every 12 hrs for 8 days by qRT-PCR analysis relative to control; settings: in vivo
Rattus norvegicus [7] = assay: Effect on CYP2c13 mRNA expression in Sprague-Dawley rat liver at 15 mg/kg, ip administered twice daily every 12 hrs for 8 days by qRT-PCR analysis relative to control; settings: in vivo
Rattus norvegicus [8] = assay: Effect on Slc22a8 mRNA expression in Sprague-Dawley rat liver at 15 mg/kg, ip administered twice daily every 12 hrs for 8 days by qRT-PCR analysis relative to control; settings: in vivo
Rattus norvegicus [9] = assay: Effect on CYP3a1 mRNA expression in Sprague-Dawley rat liver at 15 mg/kg, ip administered twice daily every 12 hrs for 8 days by qRT-PCR analysis relative to control; settings: in vivo
Rattus norvegicus [10] = assay: Effect on Slc38a4 mRNA expression in Sprague-Dawley rat liver at 15 mg/kg, ip administered twice daily every 12 hrs for 8 days by qRT-PCR analysis relative to control; settings: in vivo
Rattus norvegicus [11] = assay: Effect on CYP2d1 mRNA expression in Sprague-Dawley rat liver at 15 mg/kg, ip administered twice daily every 12 hrs for 8 days by qRT-PCR analysis relative to control; settings: in vivo
Rattus norvegicus [12] = assay: Effect on CYP2d2 mRNA expression in Sprague-Dawley rat liver at 15 mg/kg, ip administered twice daily every 12 hrs for 8 days by qRT-PCR analysis relative to control; settings: in vivo
Rattus norvegicus [13] = assay: Effect on GAPDH mRNA expression in Sprague-Dawley rat liver at 15 mg/kg, ip administered twice daily every 12 hrs for 8 days by qRT-PCR analysis relative to control; settings: in vivo
CYP3A1 [14] = assay: Upregulation of CYP3A1 protein expression in Sprague-Dawley rat liver microsomes at 15 mg/kg, ip administered twice daily every 12 hrs for 8 days by Western blot analysis relative to control; settings: read-out: FC
CYP2b2 [15] = assay: Upregulation of CYP2b2 protein expression in Sprague-Dawley rat liver microsomes at 15 mg/kg, ip administered twice daily every 12 hrs for 8 days by Western blot analysis relative to control; settings: read-out: FC
ABCB1 = assay: Upregulation of ABCB1 protein expression in Sprague-Dawley rat liver microsomes at 15 mg/kg, ip administered twice daily every 12 hrs for 8 days by Western blot analysis relative to control; settings: read-out: FC
CYP17a1 = assay: Effect on CYP17a1 mRNA expression in Sprague-Dawley rat liver at 15 mg/kg, ip administered twice daily every 12 hrs for 8 days by microarray analysis relative to control; settings: read-out: FC
Por = assay: Effect on Por mRNA expression in Sprague-Dawley rat liver at 15 mg/kg, ip administered twice daily every 12 hrs for 8 days by microarray analysis relative to control; settings: read-out: FC
Yc2/Gsta5 = assay: Effect on Yc2/Gsta5 mRNA expression in Sprague-Dawley rat liver at 15 mg/kg, ip administered twice daily every 12 hrs for 8 days by microarray analysis relative to control; settings: read-out: FC
CYP2b2 [16] = assay: Effect on CYP2b2 mRNA expression in Sprague-Dawley rat liver at 15 mg/kg, ip administered twice daily every 12 hrs for 8 days by microarray analysis relative to control; settings: read-out: FC
CYP2j4 = assay: Effect on CYP2j4 mRNA expression in Sprague-Dawley rat liver at 15 mg/kg, ip administered twice daily every 12 hrs for 8 days by microarray analysis relative to control; settings: read-out: FC
CYP27a1 = assay: Effect on CYP27a1 mRNA expression in Sprague-Dawley rat liver at 15 mg/kg, ip administered twice daily every 12 hrs for 8 days by microarray analysis relative to control; settings: read-out: FC
CYP3a1 [17] = assay: Effect on CYP3a1 mRNA expression in Sprague-Dawley rat liver at 15 mg/kg, ip administered twice daily every 12 hrs for 8 days by microarray analysis relative to control; settings: read-out: FC
CYP2e1 = assay: Effect on CYP2e1 mRNA expression in Sprague-Dawley rat liver at 15 mg/kg, ip administered twice daily every 12 hrs for 8 days by microarray analysis relative to control; settings: read-out: FC
AhR = assay: Effect on AhR mRNA expression in Sprague-Dawley rat liver at 15 mg/kg, ip administered twice daily every 12 hrs for 8 days by microarray analysis relative to control; settings: read-out: FC
Slc16a10 = assay: Effect on Slc16a10 mRNA expression in Sprague-Dawley rat liver at 15 mg/kg, ip administered twice daily every 12 hrs for 8 days by microarray analysis relative to control; settings: read-out: FC
Slc22a5 = assay: Effect on Slc22a5 mRNA expression in Sprague-Dawley rat liver at 15 mg/kg, ip administered twice daily every 12 hrs for 8 days by microarray analysis relative to control; settings: read-out: FC
Slc1a2 = assay: Effect on Slc1a2 mRNA expression in Sprague-Dawley rat liver at 15 mg/kg, ip administered twice daily every 12 hrs for 8 days by microarray analysis relative to control; settings: read-out: FC
Slc25a15 = assay: Effect on Slc25a15 mRNA expression in Sprague-Dawley rat liver at 15 mg/kg, ip administered twice daily every 12 hrs for 8 days by microarray analysis relative to control; settings: read-out: FC
Slc17a5 = assay: Effect on Slc17a5 mRNA expression in Sprague-Dawley rat liver at 15 mg/kg, ip administered twice daily every 12 hrs for 8 days by microarray analysis relative to control; settings: read-out: FC
Abcb4 = assay: Effect on Abcb4 mRNA expression in Sprague-Dawley rat liver at 15 mg/kg, ip administered twice daily every 12 hrs for 8 days by microarray analysis relative to control; settings: read-out: FC
Slc21a10 = assay: Effect on Slc21a10 mRNA expression in Sprague-Dawley rat liver at 15 mg/kg, ip administered twice daily every 12 hrs for 8 days by microarray analysis relative to control; settings: read-out: FC
Slc2a2 = assay: Effect on Slc2a2 mRNA expression in Sprague-Dawley rat liver at 15 mg/kg, ip administered twice daily every 12 hrs for 8 days by microarray analysis relative to control; settings: read-out: FC

SMILES: COc1ccc2c3c1O[C@H]1C(=O)CC[C@@]4(O)[C@@H](C2)N(C)CC[C@]314.Cl [OXYCODONE HYDROCHLORIDE]
- Activity (Rattus norvegicus [1]): Active
- Activity (Rattus norvegicus [2]): Active
- Activity (Rattus norvegicus [3]): Active
- Activity (Rattus norvegicus [4]): Active
- Activity (Rattus norvegicus [5]): Active
- Activity (Rattus norvegicus [6]): Active
- Activity (Rattus norvegicus [7]): Active
- Activity (Rattus norvegicus [8]): Active
- Activity (Rattus norvegicus [9]): Active
- Activity (Rattus norvegicus [10]): Active
- Activity (Rattus norvegicus [11]): Active
- Activity (Rattus norvegicus [12]): Active
- Activity (Rattus norvegicus [13]): Active
- fold induction at 8 days (CYP3A1 [14]): 12.2
- fold induction at 8 days (CYP2b2 [15]): 5
- fold induction at 8 days (ABCB1): 3
- fold induction at 8 days (CYP17a1): 17.1
- fold induction at 8 days (Por): 7
- fold induction at 8 days (Yc2/Gsta5): 7
- fold induction at 8 days (CYP2b2 [16]): 6
- fold induction at 8 days (CYP2j4): 2.4
- fold induction at 8 days (CYP27a1): 1.9
- fold induction at 8 days (CYP3a1 [17]): 1.7
- fold induction at 8 days (CYP2e1): 1.5
- fold induction at 8 days (AhR): 2.3
- fold induction at 8 days (Slc16a10): 3
- fold induction at 8 days (Slc22a5): 2.8
- fold induction at 8 days (Slc1a2): 2.4
- fold induction at 8 days (Slc25a15): 2.1
- fold induction at 8 days (Slc17a5): 1.5
- fold induction at 8 days (Abcb4): 1.5
- fold induction at 8 days (Slc21a10): 1.5
- fold induction at 8 days (Slc2a2): 1.5
